Test results published in patent US5690956A, “Hair care perming agent” (priority 1995, dated 1997).

Key:
Water solubility of TCEP = assay type: physicochemical
[1] = Stability of TCEP (aqueous acidic media, air oxidation, temperature); assay type: physicochemical
disulfide bonds in hair [2] = experiment: Reduction (cleavage) of disulfide bonds in hair protein; assay type: biochemical, human
Source text: The extent of cleavage of disulfide bonds using thioglycollate depends on the concentration of the reducing agent and on the amount of mechanical stress applied to the hair shaft. In spite of the conditions used in performing a reduction of the disulfide bonds, in prior practice in a laboratory setting, no more than 65-70% of the protein cystine bonds in hair were disrupted. In the actual practice of hair perming, the reduction level is even lower, ranging between 19% and 43%. When using thioglycollate as a reducing agent, the optimal perming condition occurs using ambient temperatures and a 5% (w/v) solution of thioglycollate.
2) The reducing reactions are conducted under conditions of ambient or slightly elevated temperature in a mildly acidic buffer media ranging in a pH from 2.0-5.6 and with a TCEP concentration range of 5-10% w/v. The reaction occurs over a period of about 15 minutes.

human hosts = experiment: Human safety of the reducing agent
[3] = tested on: hair, especially the cuticle; experiment: Damage to hair (cuticle); design: species or system human; conditions: vs sulfhydryl reducing agents in alkaline pH
[4] = tested on: soluble proteins, such as antibodies; conditions: in the presence of 6M guanidine or 8M urea; cited from earlier work
disulfide bonds in hair [5] = conditions: laboratory setting, prior practice; cited from earlier work
[6] = tested on: hair, especially the cuticle; conditions: elevated pH, usually pH 9-12; prior art; cited from earlier work

Row | Compound | solubility (Water solubility of TCEP) | resistance to air oxidation ([1]; air) | stability in aqueous acidic media ([1]; aqueous acidic media) | stability when exposed to fluctuations in temperature ([1]; fluctuations in temperature) | reactivity toward other functional groups found in hair (disulfide bonds in hair [2]) | reduction of some of the most stable disulfide bonds in hair (disulfide bonds in hair [2]) | effectiveness in reducing disulfide bonds vs dithiothreitol, mercaptoethanol, or thioglycollic acid (disulfide bonds in hair [2]; acidic pH) | period over which the reducing reaction occurs (disulfide bonds in hair [2]; pH 2.0-5.6, TCEP 5-10% w/v, ambient or slightly elevated temperature) | toxicity to human hosts / safety profile (human hosts) | damage to hair, especially the cuticle [3] | function as reducing agent on soluble proteins [4] | protein cystine bonds in hair disrupted (extent of reduction) (disulfide bonds in hair [5]) | cuticle damage [6]
1 | Cl.O=C(O)CCP(CCC(=O)O)CCC(=O)O [TCEP, Tris-(2-carboxy-ethyl) phosphine hydrochloride] | ~310 mg/mL | substantially resistant to air oxidation | stable in aqueous acidic media | very stable | essentially non-reactive | Selective and complete reduction | more effective than traditional sulfhydryl reducing agents | about 15 minutes | not toxic to human hosts | lower instance of damaged hair | function well | – | –
2 | O=C(O)CS [thioglycollate, thioglycollic acid] | – | – | – | – | – | – | – | – | – | – | – | 65-70% | severe cuticle damage
